Measurements published in PMC6336890 (Scientific Reports, 2019).

Biological target: PARP1 (Homo sapiens, UniProt P09874)
Experiment: in vitro PARP1 activity ELISA, recombinant enzyme
Assay type: biochemical

Chain of PARP1 (P09874 2-1014): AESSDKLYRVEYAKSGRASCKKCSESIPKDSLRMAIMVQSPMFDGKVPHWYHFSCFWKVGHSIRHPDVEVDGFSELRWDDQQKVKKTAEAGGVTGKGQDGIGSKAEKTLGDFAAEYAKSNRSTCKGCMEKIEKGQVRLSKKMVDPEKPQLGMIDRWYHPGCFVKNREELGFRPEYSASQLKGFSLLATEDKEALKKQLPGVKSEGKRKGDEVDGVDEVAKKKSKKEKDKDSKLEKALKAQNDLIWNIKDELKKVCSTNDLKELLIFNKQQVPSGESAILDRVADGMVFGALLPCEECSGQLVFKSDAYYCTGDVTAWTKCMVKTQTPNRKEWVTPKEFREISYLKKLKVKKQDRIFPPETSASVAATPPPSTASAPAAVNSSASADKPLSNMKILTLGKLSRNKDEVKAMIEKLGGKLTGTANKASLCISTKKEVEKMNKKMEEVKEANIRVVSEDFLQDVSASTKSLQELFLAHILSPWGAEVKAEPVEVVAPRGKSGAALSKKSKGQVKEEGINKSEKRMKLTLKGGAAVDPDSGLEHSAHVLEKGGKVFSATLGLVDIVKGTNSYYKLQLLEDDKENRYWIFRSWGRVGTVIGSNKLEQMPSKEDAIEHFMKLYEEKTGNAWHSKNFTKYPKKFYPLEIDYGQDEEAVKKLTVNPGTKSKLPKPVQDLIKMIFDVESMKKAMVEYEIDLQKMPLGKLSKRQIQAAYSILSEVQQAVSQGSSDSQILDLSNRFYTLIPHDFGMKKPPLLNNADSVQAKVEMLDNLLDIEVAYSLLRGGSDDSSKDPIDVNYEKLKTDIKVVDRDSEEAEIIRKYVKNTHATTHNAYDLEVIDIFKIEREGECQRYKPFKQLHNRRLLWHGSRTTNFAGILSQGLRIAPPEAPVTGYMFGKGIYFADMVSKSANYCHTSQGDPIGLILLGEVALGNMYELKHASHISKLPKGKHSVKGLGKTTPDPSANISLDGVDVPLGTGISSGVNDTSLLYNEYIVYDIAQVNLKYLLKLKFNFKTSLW

SMILES: Cc1ccc2c(=O)[nH]c(-c3ccc(C(C)(C)O)cc3)cn12 [MSC2504877]
- IC50: 540 nM
